Test results as given in PMC6277767, “Broad and Region-Specific Impacts of the Synthetic Cannabinoid CP 55,940 in Adolescent and Adult Female Mouse Brains” (Frontiers in Molecular Neuroscience, 2018).

System: CD1 female mouse brain lipidome
Experiment: Brain-region lipid levels (HPLC/MS/MS lipidomics) 2 h after single i.p. 3 mg/kg CP 55,940 vs vehicle
Type: in vivo
Protocol: The Bloomington Institutional Animal Care and Use Committee of Indiana University reviewed and approved the animal procedures. Female mice from the CD1 strain were utilized to match our study examining THC’s effects on the brain lipidome ([Leishman et al., 2018]). Mice were given a single i.p. injection of either 3 mg/kg CP or 1:1:18 cremophor:ethanol:saline vehicle (please refer to the section “3 mg/kg CP Is Relevant for Synthetic Cannabinoid Abuse and Has Stronger Effects on the Female Mouse Brain Lipidome During Adolescence” for a justification of dose and use of female mice). Three different age groups were given injections: PND 35 and PND 50 adolescents, and adult mice (PND 113). At least eight mice in each age group received CP and at least eight received vehicle. Matching the THC study time course ([Leishman et al., 2018]), mice were sacrificed via rapid decapitation 2 h after injection. Brains were immediately removed and flash-frozen in liquid nitrogen, and then stored at -80°C until dissections were performed. Brains were dissected on an ice-cold dissection plate into the following regions: STR, HIPP, CER, THAL, CTX, HYP, MID, and STEM. These abbreviations for these brain areas will be used exclusively when discussing the results generated by these specific dissections. Each dissected area was immediately placed in liquid nitrogen and then stored at -80°C until used for lipid extraction.
Tissue extracts were performed as previously described ([Bradshaw et al., 2006]; [Stuart et al., 2013]; [Raboune et al., 2014]; [Leishman et al., 2016a],[b], [2017], [2018]). First, samples were shock frozen in liquid nitrogen, weighed, and transferred to a centrifuge tube. The mass of the largest sample was multiplied by 50 to determine how many milliliters of HPLC-grade methanol (Fisher, Fair Lawn, NJ, United States) to add. Then, samples were spiked with 500 pmol deuterium-labeled NAGly (d8NAGly; Cayman Chemical, Ann Arbor, MI, United States). Samples were placed on ice in darkness for 2 h then individually homogenized and centrifuged at 19,000 × g for 20 min at 20°C. Supernatants were diluted with HPLC water (purified in house) to make a solution of 75% water, 25% supernatant. Lipids were partially purified on C18 solid phase extraction columns (Agilent, Palo Alto, CA, United States). A series of four elutions with 1.5 mL of 60%, 75%, 85%, and 100% methanol were collected ([Stuart et al., 2013]; [Leishman et al., 2016a],[b], [2018]).
As previously described ([Bradshaw et al., 2006]; [Tan et al., 2006]; [Smoum et al., 2010]; [Stuart et al., 2013]; [Tortoriello et al., 2013]; [Raboune et al., 2014]; [Leishman et al., 2016a],[b], [2017], [2018]), samples were analyzed using an Applied Biosystems API 3000 triple quadrupole mass spectrometer with electrospray ionization (Foster City, CA, United States). Using an Agilent XDB-C18 reversed phase analytical column and optimized mobile phase gradients, 20 μL from each elution were chromatographed. Two Shimadzu 10ADvp pumps (Columbia, MD, United States) provided the pressure for gradient elution. Mobile phase A: 20% methanol, 80% water (v/v) and 1 mM ammonium acetate (Sigma, St. Louis, MO, United States). Mobile phase B: 100% methanol, 1 mM ammonium acetate. Every method run began with 0% mobile phase B, reached 100% mobile phase B flowing at 0.2 mL/min, and gradually returned to 0% mobile phase B.
This screening library will be referred to as the lipidome when discussing data from this study. HPLC/MS/MS data were analyzed using Analyst software (Applied Biosystems) ([Bradshaw et al., 2006]; [Tan et al., 2006]; [Stuart et al., 2013]; [Tortoriello et al., 2013]; [Raboune et al., 2014]; [Leishman et al., 2016a],[b], [2017], [2018]). Chromatograms (Supplementary Figure 3) were generated by determining the retention time of analytes from the analytical column with a [M-1] or [M+1] parent peak and a fragmentation peak corresponding to the programmed values. […]

CCCCCCC(C)(C)c1ccc([C@@H]2C[C@H](O)CC[C@H]2CCCO)c(O)c1 [CP 55,940]
total changes in lipid levels across the eight regions (PND 35): 231
changes in lipid levels that were decreases (PND 35, eight regions): 152
2-arachidonoyl glycerol level vs vehicle (PND 35 CER): ↓ (1-1.49 times lower than vehicle)
2-linoleoyl glycerol level vs vehicle (PND 35 CER): ↓ (1-1.49 times lower than vehicle)
6-ketoPGF1α level vs vehicle (PND 35 CER): ↓↓ (1.50-1.99 times lower than vehicle)
Arachidonic acid level vs vehicle (PND 35 CER): ↓ (1-1.49 times lower than vehicle)
N-arachidonoyl GABA level vs vehicle (PND 35 CER): ↓ (1-1.49 times lower than vehicle)
N-arachidonoyl alanine level vs vehicle (PND 35 CER): ↓ (1-1.49 times lower than vehicle)
N-arachidonoyl glycine level vs vehicle (PND 35 CER): ↓ (1-1.49 times lower than vehicle)
N-arachidonoyl methionine level vs vehicle (PND 35 CER): ↓↓ (1.50-1.99 times lower than vehicle)
N-arachidonoyl serine level vs vehicle (PND 35 CER): ↓ (1-1.49 times lower than vehicle)
N-arachidonoyl taurine level vs vehicle (PND 35 CER): ↓ (1-1.49 times lower than vehicle)
N-arachidonoyl tyrosine level vs vehicle (PND 35 CER): ↓ (1-1.49 times lower than vehicle)
N-docosahexaenoyl GABA level vs vehicle (PND 35 CER): ↓ (1-1.49 times lower than vehicle)
N-docosahexaenoyl alanine level vs vehicle (PND 35 CER): ↓ (1-1.49 times lower than vehicle)
N-docosahexaenoyl glycine level vs vehicle (PND 35 CER): ↓ (1-1.49 times lower than vehicle)
N-docosahexaenoyl leucine level vs vehicle (PND 35 CER): ↑ (1-1.49 times higher than vehicle)
N-docosahexaenoyl serine level vs vehicle (PND 35 CER): ↓ (1-1.49 times lower than vehicle)
N-docosahexaenoyl tyrosine level vs vehicle (PND 35 CER): ↓ (1-1.49 times lower than vehicle)
N-linoleoyl glycine level vs vehicle (PND 35 CER): ↓ (1-1.49 times lower than vehicle)
N-linoleoyl leucine level vs vehicle (PND 35 CER): ↑ (1-1.49 times higher than vehicle)
N-linoleoyl phenylalanine level vs vehicle (PND 35 CER): ↑ (1-1.49 times higher than vehicle)
N-oleoyl GABA level vs vehicle (PND 35 CER): ↓ (1-1.49 times lower than vehicle)
N-oleoyl ethanolamine level vs vehicle (PND 35 CER): ↓ (1-1.49 times lower than vehicle)
N-oleoyl leucine level vs vehicle (PND 35 CER): ↑ (1-1.49 times higher than vehicle)
N-oleoyl phenylalanine level vs vehicle (PND 35 CER): ↑ (1-1.49 times higher than vehicle)
N-palmitoyl leucine level vs vehicle (PND 35 CER): ↑↑ (1.50-1.99 times higher than vehicle)
N-palmitoyl phenylalanine level vs vehicle (PND 35 CER): ↑ (1-1.49 times higher than vehicle)
N-palmitoyl proline level vs vehicle (PND 35 CER): ↓ (1-1.49 times lower than vehicle)
N-palmitoyl serine level vs vehicle (PND 35 CER): ↓ (1-1.49 times lower than vehicle)
N-palmitoyl tyrosine level vs vehicle (PND 35 CER): ↑ (1-1.49 times higher than vehicle)
N-palmitoyl valine level vs vehicle (PND 35 CER): ↑↑ (1.50-1.99 times higher than vehicle)
2-palmitoyl glycerol level vs vehicle (PND 35 CTX): ↑↑ (1.50-1.99 times higher than vehicle)
6-ketoPGF1α level vs vehicle (PND 35 CTX): ↓ (1-1.49 times lower than vehicle)
N- stearoyl valine level vs vehicle (PND 35 CTX): ↑ (1-1.49 times higher than vehicle)
N-arachidonoyl GABA level vs vehicle (PND 35 CTX): ↓ (1-1.49 times lower than vehicle)
N-arachidonoyl alanine level vs vehicle (PND 35 CTX): ↓ (1-1.49 times lower than vehicle)
N-arachidonoyl glycine level vs vehicle (PND 35 CTX): ↓ (1-1.49 times lower than vehicle)
N-arachidonoyl methionine level vs vehicle (PND 35 CTX): ↓↓ (1.50-1.99 times lower than vehicle)
N-arachidonoyl phenylalanine level vs vehicle (PND 35 CTX): ↓ (1-1.49 times lower than vehicle)
N-arachidonoyl serine level vs vehicle (PND 35 CTX): ↓ (1-1.49 times lower than vehicle)
N-arachidonoyl taurine level vs vehicle (PND 35 CTX): ↓ (1-1.49 times lower than vehicle)
N-arachidonoyl tyrosine level vs vehicle (PND 35 CTX): ↓ (1-1.49 times lower than vehicle)
N-docosahexaenoyl GABA level vs vehicle (PND 35 CTX): ↓ (1-1.49 times lower than vehicle)
N-docosahexaenoyl glycine level vs vehicle (PND 35 CTX): ↓ (1-1.49 times lower than vehicle)
N-docosahexaenoyl leucine level vs vehicle (PND 35 CTX): ↑↑ (1.50-1.99 times higher than vehicle)
N-docosahexaenoyl serine level vs vehicle (PND 35 CTX): ↓↓ (1.50-1.99 times lower than vehicle)
N-docosahexaenoyl valine level vs vehicle (PND 35 CTX): ↑ (1-1.49 times higher than vehicle)
N-linoleoyl GABA level vs vehicle (PND 35 CTX): ↓ (1-1.49 times lower than vehicle)
N-linoleoyl glycine level vs vehicle (PND 35 CTX): ↓ (1-1.49 times lower than vehicle)
N-oleoyl GABA level vs vehicle (PND 35 CTX): ↓ (1-1.49 times lower than vehicle)
N-oleoyl alanine level vs vehicle (PND 35 CTX): ↓ (1-1.49 times lower than vehicle)
N-oleoyl glycine level vs vehicle (PND 35 CTX): ↓ (1-1.49 times lower than vehicle)
N-oleoyl leucine level vs vehicle (PND 35 CTX): ↑ (1-1.49 times higher than vehicle)
N-oleoyl methionine level vs vehicle (PND 35 CTX): ↓ (1-1.49 times lower than vehicle)
N-oleoyl valine level vs vehicle (PND 35 CTX): ↑ (1-1.49 times higher than vehicle)
N-palmitoyl leucine level vs vehicle (PND 35 CTX): ↑↑ (1.50-1.99 times higher than vehicle)
N-palmitoyl serine level vs vehicle (PND 35 CTX): ↓ (1-1.49 times lower than vehicle)
N-palmitoyl tyrosine level vs vehicle (PND 35 CTX): ↑ (1-1.49 times higher than vehicle)
N-palmitoyl valine level vs vehicle (PND 35 CTX): ↑↑ (1.50-1.99 times higher than vehicle)
N-stearoyl serine level vs vehicle (PND 35 CTX): ↓ (1-1.49 times lower than vehicle)
N-stearoyl tyrosine level vs vehicle (PND 35 CTX): ↑ (1-1.49 times higher than vehicle)
PGF2α level vs vehicle (PND 35 CTX): ↑ (1-1.49 times higher than vehicle)
phosphoLEA level vs vehicle (PND 35 CTX): ↑↑ (1.50-1.99 times higher than vehicle)
2-arachidonoyl glycerol level vs vehicle (PND 35 HIPP): ↓ (1-1.49 times lower than vehicle)
2-linoleoyl glycerol level vs vehicle (PND 35 HIPP): ↓↓ (1.50-1.99 times lower than vehicle)
2-oleoyl glycerol level vs vehicle (PND 35 HIPP): ↓ (1-1.49 times lower than vehicle)
6-ketoPGF1α level vs vehicle (PND 35 HIPP): ↑ (1-1.49 times higher than vehicle)
Arachidonic acid level vs vehicle (PND 35 HIPP): ↓ (1-1.49 times lower than vehicle)
Linoleic acid level vs vehicle (PND 35 HIPP): ↓ (1-1.49 times lower than vehicle)
N- stearoyl valine level vs vehicle (PND 35 HIPP): ↑ (1-1.49 times higher than vehicle)
N-arachidonoyl GABA level vs vehicle (PND 35 HIPP): ↓↓ (1.50-1.99 times lower than vehicle)
N-arachidonoyl alanine level vs vehicle (PND 35 HIPP): ↓ (1-1.49 times lower than vehicle)
N-arachidonoyl ethanolamine level vs vehicle (PND 35 HIPP): ↓ (1-1.49 times lower than vehicle)
N-arachidonoyl glycine level vs vehicle (PND 35 HIPP): ↓ (1-1.49 times lower than vehicle)
N-arachidonoyl phenylalanine level vs vehicle (PND 35 HIPP): ↓ (1-1.49 times lower than vehicle)
N-arachidonoyl serine level vs vehicle (PND 35 HIPP): ↓↓↓ (2-2.99 times lower than vehicle)
N-arachidonoyl taurine level vs vehicle (PND 35 HIPP): ↓ (1-1.49 times lower than vehicle)
N-docosahexaenoyl GABA level vs vehicle (PND 35 HIPP): ↓↓ (1.50-1.99 times lower than vehicle)
N-docosahexaenoyl alanine level vs vehicle (PND 35 HIPP): ↓ (1-1.49 times lower than vehicle)
N-docosahexaenoyl ethanolamine level vs vehicle (PND 35 HIPP): ↓ (1-1.49 times lower than vehicle)
N-docosahexaenoyl glycine level vs vehicle (PND 35 HIPP): ↓ (1-1.49 times lower than vehicle)
N-docosahexaenoyl leucine level vs vehicle (PND 35 HIPP): ↑ (1-1.49 times higher than vehicle)
N-docosahexaenoyl serine level vs vehicle (PND 35 HIPP): ↓ (1-1.49 times lower than vehicle)
N-linoleoyl GABA level vs vehicle (PND 35 HIPP): ↓↓ (1.50-1.99 times lower than vehicle)
N-linoleoyl alanine level vs vehicle (PND 35 HIPP): ↓ (1-1.49 times lower than vehicle)
N-oleoyl GABA level vs vehicle (PND 35 HIPP): ↓↓ (1.50-1.99 times lower than vehicle)
N-oleoyl alanine level vs vehicle (PND 35 HIPP): ↓ (1-1.49 times lower than vehicle)
N-oleoyl ethanolamine level vs vehicle (PND 35 HIPP): ↓ (1-1.49 times lower than vehicle)
N-oleoyl glycine level vs vehicle (PND 35 HIPP): ↓ (1-1.49 times lower than vehicle)
N-oleoyl methionine level vs vehicle (PND 35 HIPP): ↓ (1-1.49 times lower than vehicle)
N-oleoyl valine level vs vehicle (PND 35 HIPP): ↑ (1-1.49 times higher than vehicle)
N-palmitoyl alanine level vs vehicle (PND 35 HIPP): ↓ (1-1.49 times lower than vehicle)
N-palmitoyl ethanolamine level vs vehicle (PND 35 HIPP): ↓ (1-1.49 times lower than vehicle)
N-palmitoyl leucine level vs vehicle (PND 35 HIPP): ↑ (1-1.49 times higher than vehicle)
N-palmitoyl phenylalanine level vs vehicle (PND 35 HIPP): ↑ (1-1.49 times higher than vehicle)
N-palmitoyl tyrosine level vs vehicle (PND 35 HIPP): ↑ (1-1.49 times higher than vehicle)
N-palmitoyl valine level vs vehicle (PND 35 HIPP): ↑ (1-1.49 times higher than vehicle)
N-stearoyl GABA level vs vehicle (PND 35 HIPP): ↓ (1-1.49 times lower than vehicle)
N-stearoyl alanine level vs vehicle (PND 35 HIPP): ↓ (1-1.49 times lower than vehicle)
N-stearoyl glycine level vs vehicle (PND 35 HIPP): ↓ (1-1.49 times lower than vehicle)
Oleic Acid level vs vehicle (PND 35 HIPP): ↓ (1-1.49 times lower than vehicle)
